The supplement of paper PMC10307832

Columns and labels:
Assay in all cases: relative viability (nuclei count vs DMSO), 5 days (fraction); higher = more cells survive
[1] = system: NCI-H2228
How it was run: (§1)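 Dosing by pin tool came one day after lung cancer cell lines were seeded in 1536-well plates, using either one drug or a fixed anchor-drug dose plus five library-drug doses (not always all listed) in √10 steps. After 5 days, nuclei were counted on 4× images. Relative viability is treated-well nuclei count divided by vehicle-well nuclei count, and values are medians of duplicate plates.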

[2] = system: H3255
How it was run: as §1

[3] = system: NCI-H1650
How it was run: as §1

[4] = system: PC-14
How it was run: as §1

[5] = system: NCI-H520
How it was run: as §1

[6] = system: COR-L23
How it was run: as §1

[7] = system: NCI-H2342
How it was run: as §1

[8] = system: NCI-H1355
How it was run: as §1

[9] = system: NCI-H661
How it was run: as §1

[10] = system: HCC-15
How it was run: as §1

[11] = system: NCI-H1734
How it was run: as §1

[12] = system: NCI-H2405
How it was run: as §1

[13] = system: CAL-12T
How it was run: as §1

[14] = system: EKVX
How it was run: as §1

[15] = system: SW 1573
How it was run: as §1

[16] = system: NCI-H1437
How it was run: as §1

[17] = system: RERF-LC-KJ
How it was run: as §1

[18] = system: HCC-827
How it was run: as §1

[19] = system: LK-2
How it was run: as §1

[20] = system: PC-3 [JPC-3]
How it was run: as §1

[21] = system: NCI-H322M
How it was run: as §1

[22] = system: ABC-1
How it was run: as §1

CC1(C)CCC(c2ccc(Cl)cc2)=C(CN2CCN(c3ccc(C(=O)NS(=O)(=O)c4ccc(N[C@H](CCN5CCOCC5)CSc5ccccc5)c(S(=O)(=O)C(F)(F)F)c4)cc3)CC2)C1 [Navitoclax] + Cc1cc(Nc2cc(N3CCN(C)CC3)nc(Sc3ccc(NC(=O)C4CC4)cc3)n2)n[nH]1 [Tozasertib] (partner 0.1 µM)
relative viability ([1]; first compound 0.005 µM): 0.343 | relative viability ([1]; first compound 0.01581 µM): 0.296 | relative viability ([1]; first compound 0.1581 µM): 0.285 | relative viability ([1]; first compound 0.5 µM): 0.212 | relative viability ([2]; first compound 0.005 µM): 0.532 | relative viability ([2]; first compound 0.01581 µM): 0.705 | relative viability ([2]; first compound 0.05 µM): 0.673 | relative viability ([2]; first compound 0.1581 µM): 0.585 | relative viability ([2]; first compound 0.5 µM): 0.609 | relative viability ([3]; first compound 0.005 µM): 0.363 | relative viability ([3]; first compound 0.01581 µM): 0.419 | relative viability ([3]; first compound 0.05 µM): 0.415 | relative viability ([3]; first compound 0.1581 µM): 0.34 | relative viability ([3]; first compound 0.5 µM): 0.356 | relative viability ([4]; first compound 0.005 µM): 0.623 | relative viability ([4]; first compound 0.01581 µM): 0.633 | relative viability ([4]; first compound 0.05 µM): 0.7 | relative viability ([4]; first compound 0.1581 µM): 0.553 | relative viability ([4]; first compound 0.5 µM): 0.559 | relative viability ([5]; first compound 0.005 µM): 0.511 | relative viability ([5]; first compound 0.01581 µM): 0.408 | relative viability ([5]; first compound 0.05 µM): 0.419 | relative viability ([5]; first compound 0.1581 µM): 0.376 | relative viability ([5]; first compound 0.5 µM): 0.392 | relative viability ([6]; first compound 0.005 µM): 0.236 | relative viability ([6]; first compound 0.01581 µM): 0.197 | relative viability ([6]; first compound 0.05 µM): 0.172 | relative viability ([6]; first compound 0.1581 µM): 0.198 | relative viability ([6]; first compound 0.5 µM): 0.228 | relative viability ([7]; first compound 0.005 µM): 0.537 | relative viability ([7]; first compound 0.01581 µM): 0.471 | relative viability ([7]; first compound 0.05 µM): 0.558 | relative viability ([7]; first compound 0.1581 µM): 0.543 | relative viability ([7]; first compound 0.5 µM): 0.548 | relative viability ([8]; first compound 0.005 µM): 0.549 | relative viability ([8]; first compound 0.01581 µM): 0.589 | relative viability ([8]; first compound 0.05 µM): 0.456 | relative viability ([8]; first compound 0.1581 µM): 0.585 | relative viability ([8]; first compound 0.5 µM): 0.518 | relative viability ([9]; first compound 0.005 µM): 0.355 | relative viability ([9]; first compound 0.01581 µM): 0.344 | relative viability ([9]; first compound 0.05 µM): 0.341 | relative viability ([9]; first compound 0.1581 µM): 0.363 | relative viability ([9]; first compound 0.5 µM): 0.358 | relative viability ([10]; first compound 0.005 µM): 0.428 | relative viability ([10]; first compound 0.01581 µM): 0.524 | relative viability ([10]; first compound 0.05 µM): 0.449 | relative viability ([10]; first compound 0.1581 µM): 0.481 | relative viability ([10]; first compound 0.5 µM): 0.467 | relative viability ([11]; first compound 0.005 µM): 0.253 | relative viability ([11]; first compound 0.01581 µM): 0.259 | relative viability ([11]; first compound 0.1581 µM): 0.201 | relative viability ([11]; first compound 0.5 µM): 0.194 | relative viability ([12]; first compound 0.005 µM): 0.761 | relative viability ([12]; first compound 0.01581 µM): 0.787 | relative viability ([12]; first compound 0.05 µM): 0.735 | relative viability ([12]; first compound 0.1581 µM): 0.731 | relative viability ([12]; first compound 0.5 µM): 0.681 | relative viability ([13]; first compound 0.005 µM): 0.273 | relative viability ([13]; first compound 0.01581 µM): 0.354 | relative viability ([13]; first compound 0.05 µM): 0.312 | relative viability ([13]; first compound 0.1581 µM): 0.347 | relative viability ([13]; first compound 0.5 µM): 0.308 | relative viability ([14]; first compound 0.005 µM): 0.411 | relative viability ([14]; first compound 0.01581 µM): 0.388 | relative viability ([14]; first compound 0.05 µM): 0.323 | relative viability ([14]; first compound 0.1581 µM): 0.44 | relative viability ([14]; first compound 0.5 µM): 0.294 | relative viability ([15]; first compound 0.005 µM): 0.186 | relative viability ([15]; first compound 0.01581 µM): 0.147 | relative viability ([15]; first compound 0.05 µM): 0.173 | relative viability ([15]; first compound 0.1581 µM): 0.176 | relative viability ([15]; first compound 0.5 µM): 0.103 | relative viability ([16]; first compound 0.005 µM): 0.408 | relative viability ([16]; first compound 0.01581 µM): 0.407 | relative viability ([16]; first compound 0.05 µM): 0.357 | relative viability ([16]; first compound 0.1581 µM): 0.46 | relative viability ([16]; first compound 0.5 µM): 0.386 | relative viability ([17]; first compound 0.005 µM): 0.507 | relative viability ([17]; first compound 0.01581 µM): 0.369 | relative viability ([17]; first compound 0.05 µM): 0.536 | relative viability ([17]; first compound 0.1581 µM): 0.526 | relative viability ([17]; first compound 0.5 µM): 0.464 | relative viability ([18]; first compound 0.005 µM): 0.437 | relative viability ([18]; first compound 0.01581 µM): 0.453 | relative viability ([18]; first compound 0.05 µM): 0.384 | relative viability ([18]; first compound 0.1581 µM): 0.39 | relative viability ([18]; first compound 0.5 µM): 0.454 | relative viability ([19]; first compound 0.005 µM): 0.189 | relative viability ([19]; first compound 0.01581 µM): 0.187 | relative viability ([19]; first compound 0.05 µM): 0.198 | relative viability ([19]; first compound 0.1581 µM): 0.159 | relative viability ([19]; first compound 0.5 µM): 0.2 | relative viability ([20]; first compound 0.005 µM): 0.846 | relative viability ([20]; first compound 0.01581 µM): 0.892 | relative viability ([20]; first compound 0.05 µM): 0.935 | relative viability ([20]; first compound 0.1581 µM): 0.898 | relative viability ([20]; first compound 0.5 µM): 0.876 | relative viability ([21]; first compound 0.005 µM): 0.48 | relative viability ([21]; first compound 0.01581 µM): 0.579 | relative viability ([21]; first compound 0.05 µM): 0.491 | relative viability ([21]; first compound 0.1581 µM): 0.548 | relative viability ([21]; first compound 0.5 µM): 0.532 | relative viability ([22]; first compound 0.005 µM): 0.158 | relative viability ([22]; first compound 0.01581 µM): 0.19 | relative viability ([22]; first compound 0.05 µM): 0.144 | relative viability ([22]; first compound 0.1581 µM): 0.164 | relative viability ([22]; first compound 0.5 µM): 0.141
